Test results as given in ChEMBL document CHEMBL1201862, “PubChem BioAssay data set” (2004).
Activity calls are given as the source filed them.

What was measured:
[1] = molecular target: Neuropeptides B/W receptor type 1 (Homo sapiens, UniProt P48145); test: Fluorescence-based dose response cell-based high throughput screening assay to identify antagonists of the G-protein coupled receptor 7 (GPR7). [Related pubchem assays: 1952 (Screening assay (GPR7 antagonists).), 1880 (Summary AID.)]; assay type: functional
Neuropeptides B/W receptor type 1, sequence (P48145 whole entry): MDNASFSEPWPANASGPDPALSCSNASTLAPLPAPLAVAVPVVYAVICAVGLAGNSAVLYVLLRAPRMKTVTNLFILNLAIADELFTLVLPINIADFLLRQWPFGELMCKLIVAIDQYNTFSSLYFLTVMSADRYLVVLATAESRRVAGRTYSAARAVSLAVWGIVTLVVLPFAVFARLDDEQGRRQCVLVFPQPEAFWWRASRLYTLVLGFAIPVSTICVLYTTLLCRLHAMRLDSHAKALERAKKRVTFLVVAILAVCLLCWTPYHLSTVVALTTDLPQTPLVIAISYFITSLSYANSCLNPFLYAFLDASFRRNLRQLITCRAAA

[2] = molecular target: T1, Neuropeptide Y receptor type 2 (Homo sapiens, UniProt P49146); test: IC50 for human NPY-Y2 blockade – cell-based, counter-screen for NPY-Y1 antagonist project, dose response (AID 1278); assay type: functional
T1 sequence (P49146 whole entry): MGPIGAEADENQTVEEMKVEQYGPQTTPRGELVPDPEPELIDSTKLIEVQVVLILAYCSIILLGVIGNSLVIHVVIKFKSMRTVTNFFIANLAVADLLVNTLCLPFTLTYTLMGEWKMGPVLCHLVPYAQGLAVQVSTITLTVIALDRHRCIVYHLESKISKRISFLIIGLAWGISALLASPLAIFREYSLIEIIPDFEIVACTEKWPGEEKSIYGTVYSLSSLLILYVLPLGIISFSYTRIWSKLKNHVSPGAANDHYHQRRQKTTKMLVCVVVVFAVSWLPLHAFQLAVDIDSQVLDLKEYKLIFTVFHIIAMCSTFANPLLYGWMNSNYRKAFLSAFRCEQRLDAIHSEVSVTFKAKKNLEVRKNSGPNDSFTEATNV

[3] = molecular target: Melanin-concentrating hormone receptor 1 (Homo sapiens, UniProt Q99705); test: Fluorescence-based counterscreen for antagonists of the G-protein coupled receptor 7 (GPR7): cell-based high throughput dose response assay to identify antagonists of the melanin-concentrating hormone receptor 1 (MCHR1).; assay type: functional
Melanin-concentrating hormone receptor 1, sequence (Q99705 whole entry): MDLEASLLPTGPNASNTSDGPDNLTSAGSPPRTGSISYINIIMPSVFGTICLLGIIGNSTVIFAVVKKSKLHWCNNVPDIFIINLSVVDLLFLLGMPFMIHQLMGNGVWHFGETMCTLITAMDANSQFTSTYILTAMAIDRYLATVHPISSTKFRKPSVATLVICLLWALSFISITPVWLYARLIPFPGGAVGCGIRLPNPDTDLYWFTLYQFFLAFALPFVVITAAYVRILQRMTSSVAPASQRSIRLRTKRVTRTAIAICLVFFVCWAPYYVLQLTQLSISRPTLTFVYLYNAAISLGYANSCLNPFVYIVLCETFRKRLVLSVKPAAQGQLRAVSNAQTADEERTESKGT

[4] = molecular target: T2, Neuropeptide Y receptor type 1 (Homo sapiens, UniProt P25929); test: IC50 of human NPY-Y1 blockers – cell-based, dose response (AID 1277); assay type: functional
T2 sequence (P25929 whole entry): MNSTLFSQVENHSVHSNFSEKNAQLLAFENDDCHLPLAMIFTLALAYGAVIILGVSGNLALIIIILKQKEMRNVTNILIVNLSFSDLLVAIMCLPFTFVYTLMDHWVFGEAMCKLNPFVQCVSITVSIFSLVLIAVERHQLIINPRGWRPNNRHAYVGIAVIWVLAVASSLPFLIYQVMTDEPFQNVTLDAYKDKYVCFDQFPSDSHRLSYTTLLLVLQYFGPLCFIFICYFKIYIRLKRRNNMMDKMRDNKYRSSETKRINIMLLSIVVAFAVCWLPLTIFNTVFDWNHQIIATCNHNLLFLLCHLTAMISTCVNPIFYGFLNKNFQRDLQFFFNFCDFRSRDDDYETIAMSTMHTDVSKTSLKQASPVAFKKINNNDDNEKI

[5] = NIH-3T3 fibroblast cytotoxicity, dose response, cytotoxicity control, cell-based, fluorescence, Alamar Blue, secondary assay (AID 2327); assay type: functional;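 further: NIH-3T3 mouse fibroblasts cultured with fluconazole at 8 µg/mL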
[6] = fluconazole-exposed Candida albicans growth modulators – fluorescence, retest, confirmation (AID 2467); assay type: functional, cell-based
NS3 = NS3 (Hepatitis C virus, UniProt A3EZJ3); test: PubChem AID 2173; design: species or system Hepacivirus hominis
NS3, sequence (A3EZJ3 whole entry): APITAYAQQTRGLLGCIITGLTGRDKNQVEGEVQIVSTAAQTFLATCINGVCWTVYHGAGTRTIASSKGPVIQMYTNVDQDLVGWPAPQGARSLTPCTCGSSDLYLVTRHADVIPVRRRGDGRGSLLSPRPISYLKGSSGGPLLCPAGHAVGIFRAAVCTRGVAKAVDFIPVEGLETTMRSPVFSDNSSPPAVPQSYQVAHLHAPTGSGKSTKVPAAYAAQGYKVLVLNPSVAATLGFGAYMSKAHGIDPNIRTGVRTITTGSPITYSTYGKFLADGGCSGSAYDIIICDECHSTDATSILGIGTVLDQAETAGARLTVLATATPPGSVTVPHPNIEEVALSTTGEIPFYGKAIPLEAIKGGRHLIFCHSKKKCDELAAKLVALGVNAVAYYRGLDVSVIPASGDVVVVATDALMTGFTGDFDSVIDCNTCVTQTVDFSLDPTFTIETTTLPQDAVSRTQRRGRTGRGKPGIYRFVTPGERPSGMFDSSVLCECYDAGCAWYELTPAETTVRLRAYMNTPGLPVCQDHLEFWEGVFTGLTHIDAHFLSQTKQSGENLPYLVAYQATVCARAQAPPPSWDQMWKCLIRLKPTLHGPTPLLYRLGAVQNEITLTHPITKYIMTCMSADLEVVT

[7] = molecular target: 26S proteasome non-ATPase regulatory subunit 14 (Homo sapiens, UniProt O00487); test: inhibition of proteasome subunit RPN11 – biochemical, fluorescence polarization, uHTS hits, confirmation (AID 602368); assay type: functional
[8] = molecular target: 72 kDa type IV collagenase (Homo sapiens, UniProt P08253); test: Dose Response validation of uHTS RPN11 inhibitor hits using a MMP-2 Fluorescence assay.; assay type: functional
72 kDa type IV collagenase, sequence (P08253 whole entry): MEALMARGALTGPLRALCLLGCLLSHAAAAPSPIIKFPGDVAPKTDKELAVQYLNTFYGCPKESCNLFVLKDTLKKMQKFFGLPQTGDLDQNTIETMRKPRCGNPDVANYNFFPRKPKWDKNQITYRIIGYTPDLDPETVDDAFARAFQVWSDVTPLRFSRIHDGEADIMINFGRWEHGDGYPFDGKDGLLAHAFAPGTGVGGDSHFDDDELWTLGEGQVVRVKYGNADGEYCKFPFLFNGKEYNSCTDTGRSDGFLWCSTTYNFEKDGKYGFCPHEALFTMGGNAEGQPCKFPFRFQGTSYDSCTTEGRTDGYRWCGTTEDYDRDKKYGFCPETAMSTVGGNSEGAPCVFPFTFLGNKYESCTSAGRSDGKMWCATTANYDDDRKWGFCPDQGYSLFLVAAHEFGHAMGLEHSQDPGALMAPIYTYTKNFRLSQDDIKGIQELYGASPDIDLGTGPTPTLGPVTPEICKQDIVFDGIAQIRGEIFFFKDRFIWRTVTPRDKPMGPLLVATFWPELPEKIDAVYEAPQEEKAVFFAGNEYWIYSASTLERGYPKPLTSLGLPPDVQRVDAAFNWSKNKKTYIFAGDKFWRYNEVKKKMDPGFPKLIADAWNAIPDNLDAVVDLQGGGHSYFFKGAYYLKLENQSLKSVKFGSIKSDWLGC

Prothrombin = Prothrombin (Bos taurus, UniProt P00735); test: thrombin protease inhibitors – biochemical, fluorescence polarization, uHTS hits, dose response (AID 602369); assay type: functional
[9] = molecular target: Potassium voltage-gated channel subfamily KQT member 2 (Rattus norvegicus, UniProt O88943, W236L); test: potentiation of rat KCNQ2 current – cell-based, automated electrophysiology, mechanism study for KCNQ2 potentiator project, dose response (AID 2603); assay type: functional
Potassium voltage-gated channel subfamily KQT member 2, sequence (O88943 whole entry W236L): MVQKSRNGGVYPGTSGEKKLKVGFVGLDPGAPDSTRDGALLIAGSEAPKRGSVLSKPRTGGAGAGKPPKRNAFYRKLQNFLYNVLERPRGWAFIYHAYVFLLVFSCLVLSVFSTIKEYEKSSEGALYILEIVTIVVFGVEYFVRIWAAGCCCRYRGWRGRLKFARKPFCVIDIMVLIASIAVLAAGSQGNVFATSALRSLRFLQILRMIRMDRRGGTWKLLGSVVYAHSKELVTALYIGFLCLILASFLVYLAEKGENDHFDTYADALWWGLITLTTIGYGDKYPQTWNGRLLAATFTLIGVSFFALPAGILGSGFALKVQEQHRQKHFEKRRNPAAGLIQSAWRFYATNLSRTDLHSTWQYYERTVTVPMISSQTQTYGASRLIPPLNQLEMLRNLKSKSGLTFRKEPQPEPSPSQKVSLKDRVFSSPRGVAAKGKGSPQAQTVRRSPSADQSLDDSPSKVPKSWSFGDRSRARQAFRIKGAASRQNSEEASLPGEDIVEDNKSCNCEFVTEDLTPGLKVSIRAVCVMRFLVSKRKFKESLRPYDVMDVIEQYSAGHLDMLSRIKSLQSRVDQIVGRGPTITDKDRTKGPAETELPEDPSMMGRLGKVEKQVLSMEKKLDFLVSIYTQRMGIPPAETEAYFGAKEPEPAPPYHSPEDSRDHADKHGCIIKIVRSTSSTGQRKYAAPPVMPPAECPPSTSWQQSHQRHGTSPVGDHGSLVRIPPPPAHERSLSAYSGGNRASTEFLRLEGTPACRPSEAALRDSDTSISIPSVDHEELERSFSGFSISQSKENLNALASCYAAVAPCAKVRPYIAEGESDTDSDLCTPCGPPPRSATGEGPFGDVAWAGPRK

[10] = molecular target: T3, Calpain-2 catalytic subunit (Sus scrofa, UniProt P43367); test: m-calpain protease blockers, concentration series – biochemical, fluorogenic peptide substrate, dose response (AID 1420); assay type: functional
T3 sequence (P43367 whole entry): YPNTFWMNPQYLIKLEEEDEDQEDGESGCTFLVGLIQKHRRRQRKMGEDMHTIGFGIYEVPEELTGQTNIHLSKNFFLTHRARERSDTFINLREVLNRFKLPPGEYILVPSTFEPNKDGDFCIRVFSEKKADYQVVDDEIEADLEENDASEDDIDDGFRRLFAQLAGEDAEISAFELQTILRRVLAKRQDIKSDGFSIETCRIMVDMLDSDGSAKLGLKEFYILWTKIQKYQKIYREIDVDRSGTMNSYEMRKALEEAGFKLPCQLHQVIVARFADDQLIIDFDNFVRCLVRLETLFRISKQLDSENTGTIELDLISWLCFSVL

Mucolipin-3 = Mucolipin-3 (Homo sapiens, UniProt Q8TDD5); test: Dose response cell-based high-throughput screening assay for agonists of the transient receptor potential channel ML3 (TRPML3). [Related pubchem assays: 1526, 1424, 1448 ]; assay type: functional
Mucolipin-3, sequence (Q8TDD5 whole entry): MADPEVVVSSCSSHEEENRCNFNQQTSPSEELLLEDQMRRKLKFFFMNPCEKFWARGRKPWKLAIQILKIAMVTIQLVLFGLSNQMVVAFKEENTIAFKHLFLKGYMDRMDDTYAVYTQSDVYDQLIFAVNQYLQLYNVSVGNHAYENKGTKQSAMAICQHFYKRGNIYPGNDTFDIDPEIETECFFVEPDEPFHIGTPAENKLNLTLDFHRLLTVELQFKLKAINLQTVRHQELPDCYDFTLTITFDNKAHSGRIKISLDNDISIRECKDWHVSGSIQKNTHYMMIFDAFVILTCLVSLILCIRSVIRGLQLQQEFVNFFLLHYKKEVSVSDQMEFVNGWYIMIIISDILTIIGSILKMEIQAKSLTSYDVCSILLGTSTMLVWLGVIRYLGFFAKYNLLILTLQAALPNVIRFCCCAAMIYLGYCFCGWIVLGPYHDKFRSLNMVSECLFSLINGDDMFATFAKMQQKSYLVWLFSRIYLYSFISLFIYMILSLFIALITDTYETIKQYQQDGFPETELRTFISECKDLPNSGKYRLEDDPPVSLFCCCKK

Ion channel NompC = Ion channel NompC (Danio rerio, UniProt Q7T1G6); test: Fluorescence counterscreen assay for TRPML3 agonists: dose response cell-based high-throughput screening assay to identify agonists of the transient receptor potential channel N1 (TRPN1). [Related pubchem assays: 1526, 1424, 1448 ]; assay type: functional
Ion channel NompC, sequence (Q7T1G6 whole entry): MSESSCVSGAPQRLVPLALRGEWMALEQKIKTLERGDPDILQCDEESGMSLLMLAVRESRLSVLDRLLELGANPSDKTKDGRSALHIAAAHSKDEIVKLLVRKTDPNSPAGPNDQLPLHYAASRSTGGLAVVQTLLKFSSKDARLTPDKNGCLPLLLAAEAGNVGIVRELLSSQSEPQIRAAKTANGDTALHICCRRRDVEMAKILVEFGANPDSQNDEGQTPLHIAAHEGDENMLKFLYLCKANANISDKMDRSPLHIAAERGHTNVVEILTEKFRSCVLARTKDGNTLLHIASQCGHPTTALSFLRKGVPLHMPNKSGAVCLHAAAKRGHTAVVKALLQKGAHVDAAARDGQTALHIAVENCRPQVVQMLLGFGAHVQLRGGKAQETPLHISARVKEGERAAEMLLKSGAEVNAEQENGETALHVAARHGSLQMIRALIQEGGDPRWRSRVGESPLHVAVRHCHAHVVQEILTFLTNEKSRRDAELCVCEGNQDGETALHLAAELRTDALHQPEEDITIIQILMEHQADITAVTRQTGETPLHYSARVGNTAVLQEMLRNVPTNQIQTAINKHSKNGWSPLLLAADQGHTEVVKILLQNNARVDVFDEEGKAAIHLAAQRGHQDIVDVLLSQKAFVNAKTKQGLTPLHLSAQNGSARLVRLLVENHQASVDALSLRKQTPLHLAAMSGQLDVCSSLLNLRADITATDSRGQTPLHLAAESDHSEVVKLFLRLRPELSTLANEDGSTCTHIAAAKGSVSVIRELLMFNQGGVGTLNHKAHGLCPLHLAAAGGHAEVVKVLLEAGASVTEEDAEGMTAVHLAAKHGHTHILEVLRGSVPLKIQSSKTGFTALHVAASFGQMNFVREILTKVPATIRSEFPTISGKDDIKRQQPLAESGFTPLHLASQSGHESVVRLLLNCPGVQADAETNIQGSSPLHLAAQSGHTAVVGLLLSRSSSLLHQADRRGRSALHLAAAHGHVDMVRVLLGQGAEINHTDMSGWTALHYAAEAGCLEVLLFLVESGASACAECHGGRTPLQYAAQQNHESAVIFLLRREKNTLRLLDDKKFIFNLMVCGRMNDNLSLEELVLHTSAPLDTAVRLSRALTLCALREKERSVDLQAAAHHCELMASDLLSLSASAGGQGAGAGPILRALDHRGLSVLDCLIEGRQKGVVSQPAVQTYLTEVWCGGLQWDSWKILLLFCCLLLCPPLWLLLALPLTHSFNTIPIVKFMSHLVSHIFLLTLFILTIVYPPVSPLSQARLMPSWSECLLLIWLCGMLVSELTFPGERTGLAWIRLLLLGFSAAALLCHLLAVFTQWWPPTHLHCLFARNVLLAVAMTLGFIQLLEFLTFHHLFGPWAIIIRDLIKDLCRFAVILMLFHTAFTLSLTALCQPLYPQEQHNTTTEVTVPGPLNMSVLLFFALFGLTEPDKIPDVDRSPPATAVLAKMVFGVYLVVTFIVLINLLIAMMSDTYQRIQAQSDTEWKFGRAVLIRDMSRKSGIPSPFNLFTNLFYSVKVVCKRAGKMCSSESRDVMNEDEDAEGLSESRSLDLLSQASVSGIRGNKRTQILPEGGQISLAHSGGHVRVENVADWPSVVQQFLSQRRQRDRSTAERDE

[11] = molecular target: T4, Heat shock factor protein 1 (Mus musculus, UniProt P38532); test: decrease of HSF1-responsive luciferase luminescence – cell-based, NIH3T3, dose retest, confirmation (AID 2382); assay type: functional;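 further: NIH3T3 fibroblasts with HSF1-driven luciferase reporter stressed by proteasome inhibitor MG132; luminescence from HSF1-driven luciferase expression after 8 hours of MG132 stress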
T4 sequence (P38532 whole entry): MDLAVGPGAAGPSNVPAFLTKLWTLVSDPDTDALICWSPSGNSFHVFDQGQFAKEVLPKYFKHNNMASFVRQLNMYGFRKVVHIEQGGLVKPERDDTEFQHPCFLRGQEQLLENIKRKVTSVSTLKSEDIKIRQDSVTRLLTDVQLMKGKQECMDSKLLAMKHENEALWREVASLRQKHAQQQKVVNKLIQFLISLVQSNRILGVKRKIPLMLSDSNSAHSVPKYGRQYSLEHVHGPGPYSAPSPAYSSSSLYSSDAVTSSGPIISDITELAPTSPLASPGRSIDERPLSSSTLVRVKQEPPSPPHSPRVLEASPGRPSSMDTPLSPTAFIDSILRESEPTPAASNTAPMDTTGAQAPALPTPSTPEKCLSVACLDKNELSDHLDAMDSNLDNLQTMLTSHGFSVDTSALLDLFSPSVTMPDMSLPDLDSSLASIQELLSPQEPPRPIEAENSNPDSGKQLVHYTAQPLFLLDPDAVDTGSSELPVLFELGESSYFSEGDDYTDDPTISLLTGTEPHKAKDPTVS

Estrogen receptor = molecular target: T5, Estrogen receptor (Homo sapiens, UniProt P03372); test: ERα coactivator recruitment enhancers – biochemical, TR-FRET, ERα LBD, dose response (AID 737)
T5 sequence (P03372 whole entry): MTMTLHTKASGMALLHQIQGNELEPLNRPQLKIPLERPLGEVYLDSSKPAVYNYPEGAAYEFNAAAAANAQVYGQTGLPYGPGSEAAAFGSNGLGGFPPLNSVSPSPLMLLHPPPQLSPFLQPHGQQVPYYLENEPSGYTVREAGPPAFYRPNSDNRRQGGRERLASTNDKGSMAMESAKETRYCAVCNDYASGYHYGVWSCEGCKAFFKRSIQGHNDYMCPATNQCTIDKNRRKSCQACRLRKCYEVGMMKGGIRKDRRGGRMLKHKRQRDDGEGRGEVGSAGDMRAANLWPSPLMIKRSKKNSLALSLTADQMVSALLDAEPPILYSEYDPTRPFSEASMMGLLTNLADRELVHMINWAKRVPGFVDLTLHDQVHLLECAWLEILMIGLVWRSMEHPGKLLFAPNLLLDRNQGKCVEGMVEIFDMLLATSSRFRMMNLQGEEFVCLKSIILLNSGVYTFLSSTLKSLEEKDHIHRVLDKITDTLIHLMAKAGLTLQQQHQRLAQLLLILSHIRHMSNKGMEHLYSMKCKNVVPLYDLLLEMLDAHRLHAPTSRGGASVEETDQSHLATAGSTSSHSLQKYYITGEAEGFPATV

Aminopeptidase N = molecular target: T6, Aminopeptidase N (Plasmodium falciparum FcB1/Columbia, UniProt O96935); test: malaria alanyl aminopeptidase activity blockers – biochemical, fluorogenic H-Leu-NHMec substrate, 1536-well (AID 1445); design: species or system Plasmodium falciparum 3D7, 3D7
T6 sequence (O96935 whole entry): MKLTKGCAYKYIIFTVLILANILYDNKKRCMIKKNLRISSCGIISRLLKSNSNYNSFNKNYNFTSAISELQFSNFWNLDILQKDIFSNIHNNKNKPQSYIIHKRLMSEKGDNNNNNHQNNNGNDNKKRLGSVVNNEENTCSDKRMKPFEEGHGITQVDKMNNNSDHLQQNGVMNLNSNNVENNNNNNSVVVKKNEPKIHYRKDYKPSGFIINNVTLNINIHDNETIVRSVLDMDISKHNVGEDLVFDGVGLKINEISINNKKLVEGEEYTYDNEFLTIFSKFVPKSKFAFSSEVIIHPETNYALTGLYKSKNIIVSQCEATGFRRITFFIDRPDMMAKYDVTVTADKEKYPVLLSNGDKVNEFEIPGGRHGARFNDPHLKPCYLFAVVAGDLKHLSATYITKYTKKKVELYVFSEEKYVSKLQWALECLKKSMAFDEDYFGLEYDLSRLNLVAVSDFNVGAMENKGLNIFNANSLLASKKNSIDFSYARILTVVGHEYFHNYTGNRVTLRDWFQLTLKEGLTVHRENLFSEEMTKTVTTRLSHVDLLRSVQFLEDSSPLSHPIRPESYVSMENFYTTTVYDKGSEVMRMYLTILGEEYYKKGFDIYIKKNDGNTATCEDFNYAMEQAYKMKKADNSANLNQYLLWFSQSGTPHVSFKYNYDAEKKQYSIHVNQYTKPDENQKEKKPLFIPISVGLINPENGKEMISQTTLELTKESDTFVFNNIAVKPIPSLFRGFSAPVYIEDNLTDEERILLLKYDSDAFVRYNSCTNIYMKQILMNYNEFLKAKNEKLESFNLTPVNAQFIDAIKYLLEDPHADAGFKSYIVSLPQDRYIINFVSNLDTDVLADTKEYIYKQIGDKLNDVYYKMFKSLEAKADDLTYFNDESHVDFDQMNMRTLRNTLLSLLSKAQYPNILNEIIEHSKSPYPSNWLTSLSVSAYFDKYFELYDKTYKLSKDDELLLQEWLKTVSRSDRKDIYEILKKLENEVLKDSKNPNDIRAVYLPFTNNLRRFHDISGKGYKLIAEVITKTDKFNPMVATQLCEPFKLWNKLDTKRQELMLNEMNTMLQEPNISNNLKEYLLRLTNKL

[12] = antiviral protection against BTV-induced cell death – arbovirus, BSR cells, confirmation (AID 1250); assay type: functional;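 further: protection from viral cytopathic effect measured as cell viability by ATP luminescence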

## O=C(NC1CCCCC1)C(c1ccncc1)N(Cc1ccc2c(c1)OCO2)C(=O)c1cnsn1 (stereo not drawn)
[1]
  IC50: > 43.8 µM (not active)
[2]
  IC50: > 35 µM (not active)
[3]
  IC50: > 43.8 µM (not active)
[4]
  IC50: 32.2 µM (not active)

## O=C1NC(=S)N(CCC2=CCCCC2)C(=O)/C1=C/NNC(=O)c1ccccc1
[5]
  EC50: > 150 µM (inconclusive)
[6]
  EC50: > 38 µM (not active)
NS3
  IC50: 5.41 µM (active)
[7]
  IC50: 43.9 µM (active)
[8]
  IC50: > 100 µM (inactive)
Prothrombin
  IC50: 62.2 µM (active)

## CCCCn1c(-c2csc(C(C)C)c2)n[nH]c1=S
[9]
  EC50: 308 µM (active)
[10]
  IC50: > 50 µM (not active)

## CCOC(=O)C(C)(C)N(Cc1cccc(C)c1)S(=O)(=O)c1cccc([N+](=O)[O-])c1
Mucolipin-3
  EC50: > 29.9 µM (not active)
Ion channel NompC
  EC50: > 29.9 µM (not active)

## COc1nnc(-c2ccc(C(=O)N3C[C@@H]4C[C@H](C3)c3cccc(=O)n3C4)cc2)c2ccccc12
[11]
  EC50: > 195 µM (not active)
Estrogen receptor
  EC50: 15 µM (active)

## Cc1ccc(C(=O)Nc2scc(-c3ccccc3)c2C(=O)O)o1
Aminopeptidase N
  IC50: 68.4 µM (active)
[12]
  IC50: 34 µM (active)
